Assay results from PMC6248945, “Antibacterial properties of the pituitary adenylate cyclase-activating polypeptide: A new human antimicrobial peptide” (PLoS ONE, 2018).
Values after ≈ are worked out from the molar mass of the structure shown. Read-outs that look alike come from different tables or passages of the source. Where a SMILES comes first, the peptide text is derived from it.

Key:
[1] = system: Burkholderia cenocepacia (K56-2); conditions: 20 h
[2] = system: Serratia marcescens (ATCC14756); conditions: ATCC14756, 20 h
[3] = system: Burkholderia cenocepacia (CEP0511 Gvar3b); conditions: CLSI microdilution, MHB, 37 °C, 20h, OD read-out; at least triplicate
Red blood cells = assay: Haemolytic activity; type: cell-based; conditions: human red blood cells in PBS, 30 min or 3h, 37°C; at 45 μg/mL (PACAP38) or 37 μg/mL (PACAP(9–38)); absorbance 545 nm; 3 independent experiments in triplicate
Method: All experimental procedures were performed in accordance with regulations and ethical guidelines and approved by the institutional committee of the Institut National de la Recherche Scientifique-Institut Armand-Frappier. Blood from healthy human volunteers was collected into sodium citrate-buffered vacutainers. Blood donations were obtained from informed and consenting individuals according to institutionally approved procedures. Red blood cells were pelleted (700 x g; 10 min), washed three times with 9 volumes of PBS by centrifugation (700 x g; 10 min), and then resuspended in PBS. […] PBS-incubated red blood cells were considered as negative control and maximum lysis of erythrocytes was obtained by incubating the cells with 0.1% (v/v) Triton X-100. At the end of the incubation period, cells were pelleted (700 x g, 10 min) and 100 μL of each supernatant was used to evaluate the release of hemoglobin by measuring the absorbance at 545 nm. Results were obtained from 3 independent experiments performed in triplicate.

[4] = system: Staphylococcus aureus (Newman); conditions: 20 h
[5] = system: Staphylococcus aureus (ATCC6538#P); conditions: ATCC6538, 20 h
[6] = system: Burkholderia cenocepacia (LMG19240); conditions: CLSI microdilution, MHB, 37 °C, 20h, OD read-out; at least triplicate
[7] = system: Pseudomonas aeruginosa (ATCC33350-Sero-2); conditions: ATCC33350, 20 h
[8] = system: Pseudomonas aeruginosa (PA14); conditions: PA14, 20 h
[9] = system: Actinobacillus pleuropneumoniae (4074); conditions: 20 h
Bacillus velezensis = conditions: 20 h
[10] = system: Bacillus cereus (ATCC11778); conditions: ATCC11778, 20 h
[11] = system: Escherichia coli (O157 :H7); conditions: CLSI microdilution, MHB, 37 °C, 20h, OD read-out; at least triplicate
Bacillus subtilis (PY79) = conditions: PY79, 20 h
[12] = system: Bacillus amyloliquefaciens (LMG22478); conditions: LMG22478, 20 h
[13] = system: Burkholderia cenocepacia (LMG18829); conditions: LMG18829, 20 h
[14] = system: Bacillus circulans (LSPQ3543); conditions: 20 h
Escherichia coli (JM109) = assay: MIC, CLSI microdilution; type: cell-based; conditions: MHB, 37 °C, 20h, OD read-out, at least triplicate
Method: Assays were performed according to the CLSI microdilution method. Briefly, the bacterial strains were inoculated and allowed to reach an OD600 of 0.08–0.13 prior to dilution to 10^6 CFU/mL in Mueller-Hinton broth (MHB). A bacterial suspension (50 μL) was then added to each well of a 96-well microplate containing serially diluted peptide solutions (50 μL in MHB) and incubated at 37 °C for 20h. A well containing sterilized medium was used as a sterility control and another well containing no added peptide served as a growth control.

[15] = system: Escherichia coli ATCC25922; conditions: ATCC25922, 20 h
[16] = system: Burkholderia cenocepacia (J2315); conditions: 20 h
[17] = system: Burkholderia thailendensis (ATCC700388); conditions: CLSI microdilution, MHB, 37 °C, 20h, OD read-out; at least triplicate
[18] = system: Pseudomonas fluorescens (MF37); conditions: 20 h
[19] = system: Pseudomonas putida (KT2440); conditions: 20 h
[20] = relative to PACAP38; cited from earlier work
DPP-IV = system: DPP-IV; design: method as in PMID 18353507; conditions: cited from earlier work

Row | Structure (SMILES) | MIC, Burkholderia cenocepacia (K56-2) [1] [µg/mL] | MIC, Serratia marcescens (ATCC14756) [2] [µg/mL] | MIC, Burkholderia cenocepacia (CEP0511 Gvar3b) [3] [µg/mL] | MIC, Staphylococcus aureus (Newman) [4] [µg/mL] | MIC, Staphylococcus aureus (ATCC6538#P) [5] [µg/mL] | MIC, Burkholderia cenocepacia (LMG19240) [6] [µg/mL] | MIC, Pseudomonas aeruginosa (ATCC33350-Sero-2) [7] [µg/mL] | MIC, Pseudomonas aeruginosa (PA14) [8] [µg/mL] | MIC, Actinobacillus pleuropneumoniae [9] [µg/mL] | MIC, Bacillus velezensis (Bacillus velezensis) [µg/mL] | MIC, Bacillus cereus (ATCC11778) [10] [µg/mL] | MIC, Escherichia coli (O157 :H7) [11] [µg/mL] | MIC, Bacillus subtilis (PY79) (Bacillus subtilis (PY79)) [µg/mL] | MIC, Bacillus amyloliquefaciens [12] [µg/mL] | MIC, Burkholderia cenocepacia (LMG18829) [13] [µg/mL] | MIC, Bacillus circulans (LSPQ3543) [14] [µg/mL] | MIC, Escherichia coli (JM109) (Escherichia coli (JM109)) [µg/mL] | MIC, Escherichia coli ATCC25922 [15] [µg/mL] | MIC, Burkholderia cenocepacia (J2315) [16] [µg/mL] | MIC, Burkholderia thailendensis (ATCC700388) [17] [µg/mL] | also measured
1 | CC[C@H](C)[C@H](NC(=O)CNC(=O)[C@H](CC(=O)O)NC(=O)[C@H](CO)NC(=O)[C@@H](N)Cc1cnc[nH]1)C(=O)N[C@@H](Cc1ccccc1)C(=O)N[C@H](C(=O)N[C@@H](CC(=O)O)C(=O)N[C@@H](CO)C(=O)N[C@@H](Cc1ccc(O)cc1)C(=O)N[C@@H](CO)C(=O)N[C@@H](CCCNC(=N)N)C(=O)N[C@@H](Cc1ccc(O)cc1)C(=O)N[C@@H](CCCNC(=N)N)C(=O)N[C@@H](CCCCN)C(=O)N[C@@H](CCC(N)=O)C(=O)N[C@@H](CCSC)C(=O)N[C@@H](C)C(=O)N[C@H](C(=O)N[C@@H](CCCCN)C(=O)N[C@@H](CCCCN)C(=O)N[C@@H](Cc1ccc(O)cc1)C(=O)N[C@@H](CC(C)C)C(=O)N[C@@H](C)C(=O)N[C@@H](C)C(=O)N[C@H](C(=O)N[C@@H](CC(C)C)C(=O)NCC(=O)N[C@@H](CCCCN)C(=O)N[C@@H](CCCNC(=N)N)C(=O)N[C@@H](Cc1ccc(O)cc1)C(=O)N[C@@H](CCCCN)C(=O)N[C@@H](CCC(N)=O)C(=O)N[C@@H](CCCNC(=N)N)C(=O)N[C@H](C(=O)N[C@@H](CCCCN)C(=O)N[C@@H](CC(N)=O)C(=O)N[C@@H](CCCCN)C(N)=O)C(C)C)C(C)C)C(C)C)[C@@H](C)O [compound 1, PACAP38] | >200 | >200 | >200 | >200 | >200 | >200 | >200 | >200 | 7.5 (≈ 1.65 µM) | 76 (≈ 16.8 µM) | >200 | >200 | 28 (≈ 6.18 µM) | 42 (≈ 9.26 µM) | >200 | 94 (≈ 20.7 µM) | >200 | >200 | 10 (≈ 2.21 µM) | >200 | Haemolytic activity (Red blood cells): do not exert a very significant haemolytic activity; MIC, Bacillus subtilis (2597) (Bacillus subtilis (2597); 2597, 20 h): >200 µg/mL; MIC, Pseudomonas fluorescens (MF37) [18]: >200 µg/mL; MIC, Pseudomonas putida (KT2440) [19]: 113 µg/mL (≈ 24.9 µM)
2 | CC[C@H](C)[C@H](NC(=O)CNC(=O)[C@H](CC(=O)O)NC(=O)[C@H](CO)NC(=O)[C@@H](N)Cc1c[nH]cn1)C(=O)N[C@@H](Cc1ccccc1)C(=O)N[C@H](C(=O)N[C@@H](CC(=O)O)C(=O)N[C@@H](CO)C(=O)N[C@@H](Cc1ccc(O)cc1)C(=O)N[C@@H](CO)C(=O)N[C@@H](CCCNC(=N)N)C(=O)N[C@@H](Cc1ccc(O)cc1)C(=O)N[C@@H](CCCNC(=N)N)C(=O)N[C@@H](CCCCN)C(=O)N[C@@H](CCC(N)=O)C(=O)N[C@@H](CCSC)C(=O)N[C@@H](C)C(=O)N[C@H](C(=O)N[C@@H](C)C(=O)N[C@@H](CCCCN)C(=O)N[C@@H](Cc1ccc(O)cc1)C(=O)N[C@@H](CC(C)C)C(=O)N[C@@H](C)C(=O)N[C@@H](C)C(=O)N[C@H](C(=O)N[C@@H](CC(C)C)C(=O)NCC(=O)N[C@@H](CCCCN)C(=O)N[C@@H](CCCNC(=N)N)C(=O)N[C@@H](Cc1ccc(O)cc1)C(=O)N[C@@H](CCCCN)C(=O)N[C@@H](CCC(N)=O)C(=O)N[C@@H](CCCNC(=N)N)C(=O)N[C@H](C(=O)N[C@@H](CCCCN)C(=O)N[C@@H](CC(N)=O)C(=O)N[C@@H](CCCCN)C(N)=O)C(C)C)C(C)C)C(C)C)[C@@H](C)O [compound 4, [Ala^20]PACAP38] (H-HSDGIFTDSYSRYRKQMAVAKYLAAVLGKRYKQRVKNK-NH2) | >200 | >200 | >200 | >200 | >200 | >200 | >200 | 112 (≈ 25 µM) | >200 | 61 (≈ 13.6 µM) | >200 | 168 (≈ 37.5 µM) | 3 (≈ 0.67 µM) | 7 (≈ 1.56 µM) | >200 | 47 (≈ 10.5 µM) | 28 (≈ 6.25 µM) | >200 | 5 (≈ 1.12 µM) | >200 | Metabolic stability in human plasma [20]: improved metabolic stability; Metabolic stability against DPP-IV (DPP-IV): improved metabolic stability; MIC, Bacillus subtilis (2597) (Bacillus subtilis (2597); CLSI microdilution, MHB, 37 °C, 20h, OD read-out, at least triplicate): 168 µg/mL (≈ 37.5 µM); MIC, Pseudomonas fluorescens (MF37) [18]: 112 µg/mL (≈ 25 µM); MIC, Pseudomonas putida (KT2440) [19]: 56 µg/mL (≈ 12.5 µM)
